Experiments:
Conditions in all cases: compound at 10 μM
[1] = target: T1, Human Melanocortin (MC3) (Homo sapiens, UniProt P41968); assay: Radioligand binding, human melanocortin MC3 membranes, FlashPlate, [125I]-NDP-αMSH
T1 construct: purchased Perkin Elmer Biosignal
How it was run: (§1)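 Cloned human receptor membranes were coated onto FlashPlate wells and incubated with radioligand and compound (added from a 0.5 mM DMSO daughter plate) for 1 hour at room temperature in the dark. Scintillation counting gave percent inhibition, with DMSO defining total and reference ligand defining non-specific binding.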

[2] = target: T2, Human neuropeptide Y (NPY-Y1) (Homo sapiens, UniProt P25929); assay: Radioligand binding, human neuropeptide Y NPY-Y1 membranes, FlashPlate, [125I]-PYY
T2 construct: purchased Perkin Elmer Biosignal
T2 sequence (P25929 1-384): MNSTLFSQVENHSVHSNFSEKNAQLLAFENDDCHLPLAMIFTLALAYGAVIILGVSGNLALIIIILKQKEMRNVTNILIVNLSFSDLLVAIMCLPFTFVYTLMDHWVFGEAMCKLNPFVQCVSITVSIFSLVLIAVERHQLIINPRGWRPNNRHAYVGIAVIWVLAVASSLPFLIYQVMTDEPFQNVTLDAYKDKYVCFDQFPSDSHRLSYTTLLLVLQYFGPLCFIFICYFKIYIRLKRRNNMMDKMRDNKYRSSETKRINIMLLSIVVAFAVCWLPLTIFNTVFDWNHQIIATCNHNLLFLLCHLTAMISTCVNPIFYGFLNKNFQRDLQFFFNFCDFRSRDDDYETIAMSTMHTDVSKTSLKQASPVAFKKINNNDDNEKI
How it was run: as §1

[3] = target: T3, Human opioid (ORL1) (Homo sapiens, UniProt P41146); assay: Radioligand binding, human opioid ORL1 membranes, FlashPlate, [125I]-Nociceptin
T3 construct: purchased Perkin Elmer Biosignal
T3 sequence (P41146 whole entry): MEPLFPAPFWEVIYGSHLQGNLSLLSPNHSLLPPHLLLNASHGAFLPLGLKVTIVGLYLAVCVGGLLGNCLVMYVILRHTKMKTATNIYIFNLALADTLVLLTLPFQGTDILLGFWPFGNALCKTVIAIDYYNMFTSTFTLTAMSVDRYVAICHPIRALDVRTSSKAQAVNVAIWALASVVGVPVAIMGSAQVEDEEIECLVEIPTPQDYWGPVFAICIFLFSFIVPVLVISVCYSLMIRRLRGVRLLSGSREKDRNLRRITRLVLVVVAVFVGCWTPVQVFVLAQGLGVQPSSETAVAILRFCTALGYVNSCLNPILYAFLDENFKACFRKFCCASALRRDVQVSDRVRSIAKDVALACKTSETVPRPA
How it was run: as §1

[4] = target: T4, Mouse urotensin (mUR2) (Mus musculus, UniProt Q8VIH9); assay: Radioligand binding, mouse urotensin mUR2 membranes, FlashPlate, [125I]-Urotensin II
T4 construct: purchased Perkin Elmer Biosignal
T4 sequence (Q8VIH9 1-385): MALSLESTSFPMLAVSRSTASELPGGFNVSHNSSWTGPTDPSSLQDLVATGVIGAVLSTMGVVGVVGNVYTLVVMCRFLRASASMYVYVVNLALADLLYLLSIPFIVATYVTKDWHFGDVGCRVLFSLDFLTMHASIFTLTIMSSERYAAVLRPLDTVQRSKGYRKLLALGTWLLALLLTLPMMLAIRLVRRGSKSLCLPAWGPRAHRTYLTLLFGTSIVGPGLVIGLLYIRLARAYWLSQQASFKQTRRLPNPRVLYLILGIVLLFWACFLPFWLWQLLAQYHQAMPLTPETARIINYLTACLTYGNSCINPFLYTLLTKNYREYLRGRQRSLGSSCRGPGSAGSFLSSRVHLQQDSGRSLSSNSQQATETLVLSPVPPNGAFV
How it was run: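 Cloned mouse urotensin (mUR2) receptor membranes from Perkin Elmer Biosignal were immobilized in FlashPlate microplates using a proprietary coating. Each well got 19.5 μl buffer, then 0.5 μl of DMSO, reference ligand, or compound. Adding 5 μl of [125I]-Urotensin II, diluted to 5× final concentration in binding buffer, started binding. Plates were sealed with TopSeal-A and incubated 1 hour at room temperature in the dark. Wells were counted for 30 seconds each on a TopCount after a 60-second delay, and percentage inhibition was calculated.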

[5] = target: T5, Human melanin-concentrating hormone (MCH1) (Homo sapiens, UniProt Q99705); assay: Radioligand binding, human melanin-concentrating hormone MCH1 membranes, FlashPlate, [125I]-S36057
T5 construct: purchased Perkin Elmer Biosignal
T5 sequence (Q99705 whole entry): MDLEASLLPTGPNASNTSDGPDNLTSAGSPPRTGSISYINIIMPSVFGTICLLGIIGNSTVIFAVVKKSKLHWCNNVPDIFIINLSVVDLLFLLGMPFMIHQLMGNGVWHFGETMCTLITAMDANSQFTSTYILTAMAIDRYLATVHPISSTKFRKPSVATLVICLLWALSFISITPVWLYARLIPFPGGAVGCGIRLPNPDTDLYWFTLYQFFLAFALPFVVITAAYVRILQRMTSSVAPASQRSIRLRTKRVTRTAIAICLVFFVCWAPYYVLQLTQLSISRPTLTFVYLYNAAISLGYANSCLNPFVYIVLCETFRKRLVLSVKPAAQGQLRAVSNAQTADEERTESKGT
How it was run: as §1

[6] = target: T6, Human neurokinin (NK1) (Homo sapiens, UniProt P25103); assay: Radioligand binding, human neurokinin NK1 membranes, filtration, [125I]-Substance P
T6 construct: purchased Perkin Elmer Biosignal
T6 sequence (P25103 whole entry): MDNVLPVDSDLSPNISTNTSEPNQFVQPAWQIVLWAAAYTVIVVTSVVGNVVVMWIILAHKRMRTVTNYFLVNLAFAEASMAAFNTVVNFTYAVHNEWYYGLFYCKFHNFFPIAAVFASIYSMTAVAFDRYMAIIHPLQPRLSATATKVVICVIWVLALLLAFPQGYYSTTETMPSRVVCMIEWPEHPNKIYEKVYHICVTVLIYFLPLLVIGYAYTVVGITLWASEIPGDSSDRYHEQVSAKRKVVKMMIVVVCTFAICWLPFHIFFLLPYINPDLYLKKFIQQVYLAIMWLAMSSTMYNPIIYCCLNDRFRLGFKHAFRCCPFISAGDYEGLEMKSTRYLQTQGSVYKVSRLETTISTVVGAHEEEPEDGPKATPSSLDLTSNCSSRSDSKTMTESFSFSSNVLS
How it was run: (§2)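 Filtration binding on cloned human receptor membranes (1 Unit/well), [125I]-Substance P for NK1 and [3H]-Diprenorphine for KOP, 1 h at room temperature. Filters PEI-presoaked, washed with cold 50 mM Tris-HCl pH 7.4, counted by scintillation; percent inhibition calculated, reference ligand defining non-specific binding.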

[7] = target: T7, Human melanocortin (MC5) (Homo sapiens, UniProt P33032); assay: Radioligand binding, human melanocortin MC5 membranes, FlashPlate, [125I]-NDP-αMSH
T7 construct: purchased Perkin Elmer Biosignal
T7 sequence (P33032 whole entry): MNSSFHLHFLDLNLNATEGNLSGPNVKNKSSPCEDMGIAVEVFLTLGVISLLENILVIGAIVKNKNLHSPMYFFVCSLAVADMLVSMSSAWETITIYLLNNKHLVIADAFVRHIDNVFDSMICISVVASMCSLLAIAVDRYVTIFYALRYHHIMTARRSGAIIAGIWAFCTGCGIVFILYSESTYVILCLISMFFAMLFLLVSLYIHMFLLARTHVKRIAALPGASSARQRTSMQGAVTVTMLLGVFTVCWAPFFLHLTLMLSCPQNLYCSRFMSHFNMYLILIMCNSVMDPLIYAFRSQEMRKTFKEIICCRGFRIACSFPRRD
How it was run: as §1

[8] = target: T8, Human μ-opioid (MOP) (Homo sapiens, UniProt P35372); assay: Radioligand binding, human μ-opioid (MOP) membranes, FlashPlate, [3H]-Naloxone
T8 construct: purchased Perkin Elmer Biosignal
T8 sequence (P35372 whole entry): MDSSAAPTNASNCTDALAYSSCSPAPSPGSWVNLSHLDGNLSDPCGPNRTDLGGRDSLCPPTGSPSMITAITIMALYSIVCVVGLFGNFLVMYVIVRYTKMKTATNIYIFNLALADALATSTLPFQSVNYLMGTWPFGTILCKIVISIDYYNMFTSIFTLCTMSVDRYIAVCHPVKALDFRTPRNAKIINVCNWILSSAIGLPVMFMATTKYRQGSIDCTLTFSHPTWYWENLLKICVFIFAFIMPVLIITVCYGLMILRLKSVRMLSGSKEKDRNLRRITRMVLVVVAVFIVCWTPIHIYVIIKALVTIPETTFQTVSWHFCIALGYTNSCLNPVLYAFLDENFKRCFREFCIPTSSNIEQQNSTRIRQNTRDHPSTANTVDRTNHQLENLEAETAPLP
How it was run: as §1

[9] = target: T9, Human Melanocortin (MC4) (Homo sapiens, UniProt P32245); assay: Radioligand binding, human melanocortin MC4 membranes, FlashPlate, [125I]-NDP-αMSH
T9 construct: purchased Perkin Elmer Biosignal
T9 sequence (P32245 whole entry): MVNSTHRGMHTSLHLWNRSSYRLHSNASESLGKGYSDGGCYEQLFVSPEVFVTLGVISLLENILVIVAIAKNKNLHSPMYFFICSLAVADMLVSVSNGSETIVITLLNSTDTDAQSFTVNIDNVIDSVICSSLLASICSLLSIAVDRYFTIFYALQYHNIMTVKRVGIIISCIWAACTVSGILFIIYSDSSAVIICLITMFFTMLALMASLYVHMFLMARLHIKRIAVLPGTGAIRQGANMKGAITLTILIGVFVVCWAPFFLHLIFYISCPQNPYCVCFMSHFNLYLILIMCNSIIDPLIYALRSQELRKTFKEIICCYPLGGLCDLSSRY
How it was run: as §1

[10] = target: T10, Human κ-Opioid (KOP) (Homo sapiens, UniProt P41145); assay: Radioligand binding, human κ-opioid (KOP) membranes, filtration, [3H]-Diprenorphine
T10 construct: purchased Perkin Elmer Biosignal
T10 sequence (P41145 whole entry): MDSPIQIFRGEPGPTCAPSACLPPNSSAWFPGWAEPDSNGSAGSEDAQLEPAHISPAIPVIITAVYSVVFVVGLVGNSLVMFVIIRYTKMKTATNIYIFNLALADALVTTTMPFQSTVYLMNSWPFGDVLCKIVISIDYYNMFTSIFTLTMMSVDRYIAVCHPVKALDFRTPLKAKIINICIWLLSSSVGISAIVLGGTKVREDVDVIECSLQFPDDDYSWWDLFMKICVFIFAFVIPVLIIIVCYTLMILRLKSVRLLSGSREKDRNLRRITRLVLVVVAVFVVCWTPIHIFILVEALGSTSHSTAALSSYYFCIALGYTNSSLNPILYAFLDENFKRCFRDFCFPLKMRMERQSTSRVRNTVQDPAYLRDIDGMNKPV
How it was run: as §2

[11] = target: T11, Human δ-opioid (DOP) (Homo sapiens, UniProt P41143); assay: Radioligand binding, human δ-opioid (DOP) membranes, FlashPlate, [3H]-Bremazocine
T11 construct: purchased Perkin Elmer Biosignal
T11 sequence (P41143 whole entry): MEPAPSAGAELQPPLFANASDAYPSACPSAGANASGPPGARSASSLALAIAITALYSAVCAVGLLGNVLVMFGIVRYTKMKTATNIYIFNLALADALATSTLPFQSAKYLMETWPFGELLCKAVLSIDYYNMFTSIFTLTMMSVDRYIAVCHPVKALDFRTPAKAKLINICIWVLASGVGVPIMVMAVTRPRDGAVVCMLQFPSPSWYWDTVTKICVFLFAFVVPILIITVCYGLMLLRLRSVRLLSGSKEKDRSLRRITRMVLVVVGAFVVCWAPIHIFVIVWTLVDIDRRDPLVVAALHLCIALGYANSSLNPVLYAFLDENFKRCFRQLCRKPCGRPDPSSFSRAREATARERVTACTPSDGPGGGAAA
How it was run: as §1

T1 sequence (P41968 whole entry): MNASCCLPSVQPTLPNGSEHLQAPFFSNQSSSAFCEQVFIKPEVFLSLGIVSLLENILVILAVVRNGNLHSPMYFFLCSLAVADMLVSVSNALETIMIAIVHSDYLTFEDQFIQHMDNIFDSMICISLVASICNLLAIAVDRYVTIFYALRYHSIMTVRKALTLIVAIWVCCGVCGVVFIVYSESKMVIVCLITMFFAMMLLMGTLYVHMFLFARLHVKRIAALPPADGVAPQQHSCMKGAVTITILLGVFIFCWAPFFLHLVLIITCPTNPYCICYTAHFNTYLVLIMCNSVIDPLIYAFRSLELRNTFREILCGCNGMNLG

## CO[C@H]1[C@H](O)[C@@H](COCc2ccc(Cl)cc2)OC(OCc2ccccc2)[C@@H]1NC(=O)CCNC(=N)N (stereo partly drawn) [compound 91]
[1]; human melanocortin MC3 membranes
  A3 radioligand binding inhibition: − (“−” indicates less than 50% inhibition at 10 μM)
[2]; human NPY-Y1 membranes
  A9 radioligand binding inhibition: − (“−” indicates less than 50% inhibition at 10 μM)
[3]; human ORL1 membranes
  A10 radioligand binding inhibition: − (“−” indicates less than 50% inhibition at 10 μM)
[4]; mouse urotensin mUR2 membranes
  A11 radioligand binding inhibition: − (“−” indicates less than 50% inhibition at 10 μM)
[5]; human MCH1 membranes
  A6 radioligand binding inhibition: − (“−” indicates less than 50% inhibition at 10 μM)
[6]; human neurokinin NK1 membranes
  A8 radioligand binding inhibition: + (“+” indicates greater than 50% inhibition at 10 μM)
[7]; human melanocortin MC5 membranes
  A5 radioligand binding inhibition: − (“−” indicates less than 50% inhibition at 10 μM)
[8]; human μ-opioid (MOP) membranes
  A7 radioligand binding inhibition: − (“−” indicates less than 50% inhibition at 10 μM)
[9]; human melanocortin MC4 membranes
  A4 radioligand binding inhibition: − (“−” indicates less than 50% inhibition at 10 μM)
[10]; human κ-opioid (KOP) membranes
  A2 radioligand binding inhibition: − (“−” indicates less than 50% inhibition at 10 μM)
[11]; human δ-opioid (DOP) membranes
  A1 radioligand binding inhibition: − (“−” indicates less than 50% inhibition at 10 μM)

## COC[C@H]1OC(OCCc2ccccc2)[C@H](NC(=O)CCCN)[C@@H](OCc2ccc3ccccc3c2)[C@@H]1O (single isomer, unassigned) [compound 346]
[1]; [125I]-NDP-αMSH, 10 µM
  A3: inhibition of radioligand binding, human melanocortin (MC3): + (“+” indicates greater than 50% inhibition at 10 μM)
[2]; [125I]-PYY
  A9: inhibition of radioligand binding, human neuropeptide Y (NPY-Y1): − (“−” indicates less than 50% inhibition at 10 μM)
[3]; [125I]-Nociceptin, 10 µM
  A10: inhibition of radioligand binding, human opioid (ORL1): + (“+” indicates greater than 50% inhibition at 10 μM)
[4]; [125I]-Urotensin II, 10 µM
  A11: inhibition of radioligand binding, mouse urotensin (mUR2): + (“+” indicates greater than 50% inhibition at 10 μM)
[5]; [125I]-S36057, 10 µM
  A6: inhibition of radioligand binding, human melanin-concentrating hormone (MCH1): + (“+” indicates greater than 50% inhibition at 10 μM)
[6]; [125I]-Substance P
  A8: inhibition of radioligand binding, human neurokinin (NK1): + (“+” indicates greater than 50% inhibition at 10 μM)
[7]; [125I]-NDP-αMSH, 10 µM
  A5: inhibition of radioligand binding, human melanocortin (MC5): + (“+” indicates greater than 50% inhibition at 10 μM)
[8]; [3H]-Naloxone, 10 µM
  A7: inhibition of radioligand binding, human μ-opioid (MOP): + (“+” indicates greater than 50% inhibition at 10 μM)
[9]; [125I]-NDP-αMSH, 10 µM
  A4: inhibition of radioligand binding, human melanocortin (MC4): + (“+” indicates greater than 50% inhibition at 10 μM)
[10]; [3H]-Diprenorphine, 10 µM
  A2: inhibition of radioligand binding, human κ-opioid (KOP): + (“+” indicates greater than 50% inhibition at 10 μM)
[11]; [3H]-Bremazocine
  A1: inhibition of radioligand binding, human δ-opioid (DOP): − (“−” indicates less than 50% inhibition at 10 μM)

## COC[C@H]1OC(OCc2ccc3ccccc3c2)[C@H](NC(=O)CCCNC(=N)N)[C@@H](OCc2cccc(O)c2)[C@@H]1O (stereo partly drawn) [compound 135]
[1]; [125I]-NDP-αMSH
  A3 radioligand binding, percentage inhibition: − (“−” indicates less than 50% inhibition at 10 μM)
[2]; [125I]-PYY
  A9 radioligand binding, percentage inhibition: − (“−” indicates less than 50% inhibition at 10 μM)
[3]; [125I]-Nociceptin
  A10 radioligand binding, percentage inhibition: − (“−” indicates less than 50% inhibition at 10 μM)
[4]; [125I]-Urotensin II
  A11 radioligand binding, percentage inhibition: − (“−” indicates less than 50% inhibition at 10 μM)
[5]; [125I]-S36057
  A6 radioligand binding, percentage inhibition: − (“−” indicates less than 50% inhibition at 10 μM)
[6]; [125I]-Substance P
  A8 radioligand binding, percentage inhibition: − (“−” indicates less than 50% inhibition at 10 μM)
[7]; [125I]-NDP-αMSH
  A5 radioligand binding, percentage inhibition: − (“−” indicates less than 50% inhibition at 10 μM)
[8]; [3H]-Naloxone
  A7 radioligand binding, percentage inhibition: + (“+” indicates greater than 50% inhibition at 10 μM)
[9]; [125I]-NDP-αMSH
  A4 radioligand binding, percentage inhibition: − (“−” indicates less than 50% inhibition at 10 μM)
[10]; [3H]-Diprenorphine
  A2 radioligand binding, percentage inhibition: − (“−” indicates less than 50% inhibition at 10 μM)
[11]; [3H]-Bremazocine
  A1 radioligand binding, percentage inhibition: − (“−” indicates less than 50% inhibition at 10 μM)
